{"source": "patent US6399642B2", "about": "“Benzimidazole topoisomerase poisons” (Rutgers, The State University of New Jersey, priority 1998, dated 2002)", "biological_target": "T1, human topoisomerase I (Homo sapiens, UniProt P11387)", "T1 construct": "unnamed fusion partner (recombinant fusion protein); made in house", "T1 sequence (P11387 1-765)": "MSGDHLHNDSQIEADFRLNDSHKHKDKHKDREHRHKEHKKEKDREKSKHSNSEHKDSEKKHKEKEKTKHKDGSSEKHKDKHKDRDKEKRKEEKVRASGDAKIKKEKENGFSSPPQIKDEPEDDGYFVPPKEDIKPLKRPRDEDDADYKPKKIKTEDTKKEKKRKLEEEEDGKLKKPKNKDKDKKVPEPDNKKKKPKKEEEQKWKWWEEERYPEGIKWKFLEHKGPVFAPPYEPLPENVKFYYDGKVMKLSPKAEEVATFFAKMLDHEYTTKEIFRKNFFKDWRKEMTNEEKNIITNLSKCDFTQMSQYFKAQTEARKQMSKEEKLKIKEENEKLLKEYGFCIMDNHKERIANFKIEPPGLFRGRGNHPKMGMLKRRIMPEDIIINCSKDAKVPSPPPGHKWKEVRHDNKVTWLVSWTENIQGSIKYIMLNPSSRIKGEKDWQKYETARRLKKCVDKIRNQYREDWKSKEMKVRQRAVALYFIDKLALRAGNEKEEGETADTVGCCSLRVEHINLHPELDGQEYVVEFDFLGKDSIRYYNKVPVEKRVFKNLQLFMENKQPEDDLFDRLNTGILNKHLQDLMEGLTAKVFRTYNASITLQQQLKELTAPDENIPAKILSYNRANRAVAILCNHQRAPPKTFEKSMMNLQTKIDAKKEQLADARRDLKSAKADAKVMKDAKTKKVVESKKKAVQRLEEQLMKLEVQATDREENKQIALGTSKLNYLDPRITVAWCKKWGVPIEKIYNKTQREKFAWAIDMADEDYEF", "experiment": "Test A. Topoisomerase I Cleavage Assay", "type": "biochemical", "details": "concentration relative to compound 5 producing the same cleavage on plasmid DNA in the presence of human topoisomerase I", "description": "Test A. Topoisomerase I Cleavage Assay.\nRepresentative compounds of the invention were evaluated in a cleavage assay using recombinant topoisomerases I. This assay was preformed as described by B. Gatto et al. Cancer Res., 1996, 56, 2795-2800. Human topoisomerase I was isolated as a recombinant fusion protein using a T7 expression system. Plasmid YEpG was purified by the alkali lysis method followed by phenol deproteination and CsCl/ethidium isopycnic centrifiigation as described by Maniatis, T.; Fritsch, E. F.; Sambrook, J. Molecular Cloning, a Laboratory Manual; Cold Spring Harbor Laboratory: Cold Spring Harbor, N.Y. 1982; pp 149-185. The end-labeling of the plasmid was accomplished by digestion with a restriction enzyme followed by end-filling with Klenow polymerase as previously described by Liu, L. F.; Rowe, T. C.; Yang, L.; Tewey, K. M.; Chen, G. L. “Cleavage of DNA by mammalian topoisomerase II,” J. Biol. Chem. 1983, 258, 15365. […] Topoisomerase I cleavage values are reported as REC, Relative Effective Concentration (i.e., concentrations relative to compound 5, whose value is arbitrarily assumed as 1) that is able to produce the same cleavage on the plasmid DNA in the presence of human topoisomerase I.", "data": [{"molecule": "FC(F)(F)c1nc2cc(-c3nc4cc(-c5nc6cc(-c7ccccc7)ccc6[nH]5)ccc4[nH]3)ccc2[nH]1", "note": "[Compound 5, 5-Phenyl-2-[2′(2″-trifluoromethylbenzimidazol-5″yl)benzimidazol-5′-yl]benzimidazole]", "values": [{"measurement": "Topoisomerase I cleavage, REC (Relative Effective Concentration)", "value": 1}]}]}
